In patent publication US20230405003A1, “APPLICATION OF THYMIDINE DERIVATIVE IN PREPARATION OF DRUGS” (ONQUALITY PHARMACEUTICALS CHINA LTD., priority 2020, published 2023):
Read-outs that look alike come from different tables or passages of the source.

Columns and labels:
[1] = tested on: hand-foot syndrome caused by capecitabine in SD rats; assay: Rat model of hand-foot syndrome caused by capecitabine, gel application; format: in vivo; conditions: capecitabine 4000 mg/kg once daily, 40 days; for inhibition in vivo at 3 % / inhibition in vivo at 0.1 % / inhibition in vivo at 0.5 % / inhibition in vivo at 1 % / inhibition in vivo at 5 %: Rattus norvegicus, topical, 960 h; for inhibition in vivo at 3 % / inhibition in vivo at 0.1 % / inhibition in vivo at 0.5 % / inhibition in vivo at 1 % / inhibition in vivo at 5 % / Control Rate Forepaws / Control Rate Hindpaws: rats; for Control Rate: SD rats
How it was run: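 Female SD rats (~200 g, n=10/group) were given daily oral capecitabine (castor oil/ethanol 1:1, diluted with PBS). Thymidine derivative gel, alone or combined with uridine derivative, or blank gel was applied to both hind paws for ~4 h daily until blank controls developed hand-foot syndrome. Control rate was blank incidence minus treated incidence; paws were also examined by HE and IHC.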

[2] = tested on: pain in capecitabine hand-foot syndrome rats; assay: Pain of hand-foot syndrome, mechanical sensitivity in rats (von Frey); format: in vivo, rat; conditions: capecitabine 4000 mg/kg hand-foot syndrome rats; thymidine derivative 3%
Experimental: According to the method of Examples 91-115, after administration of a thymidine derivative (at a concentration of 3%) and co-administration of a thymidine derivative (at a concentration of 1%) with a uridine derivative (at a concentration of 3%) to rat hand-foot syndrome models constructed from 4000 mg/kg of capecitabine for a period of time, pain analysis was performed on the rats, and the pain assessment model was mechanical sensitivity in rats (von Frey). The experimental steps were as follows: first, the rats were allowed to adapt in the room for 1 hour, then the rats were placed in an observation box with a metal mesh floor, and the mice were allowed to stay in the box for 20 minutes to adapt to the experimental platform. Next, a von Frey device was used to detect paw pain by stimulating the surface of the rat's palm with specially designed cilia to detect the mechanical sensitivity of the animal at strength of 0.4 g, 0.8 g, 1.5 g, 2.5 g, 4 g, 8 g, 10 g and 20 g (IITC Life Science, Woodland Hills, 2390 series). […] The rat movement response was considered to be a vague response, in which case the stimulation experiment was repeated.

[3] = tested on: hand-foot syndrome caused by capecitabine in Balb/c mice; assay: Mouse model of hand-foot syndrome caused by capecitabine, gel application or oral administration; format: in vivo; conditions: capecitabine 1000 mg/kg once daily; for inhibition in vivo at 2 % / inhibition in vivo at 300 mg/kg / inhibition in vivo at 5 % / inhibition in vivo at 1 % / inhibition in vivo at 3 % / inhibition in vivo at 0.5 % / inhibition in vivo at 200 mg/kg / inhibition in vivo at 250 mg/kg: Mus musculus; for inhibition in vivo at 2 % / inhibition in vivo at 5 % / inhibition in vivo at 1 % / inhibition in vivo at 3 % / inhibition in vivo at 0.5 %: topical, 360 h; for inhibition in vivo at 2 %: gel 2 wt%; for inhibition in vivo at 2 % / inhibition in vivo at 5 % / inhibition in vivo at 1 % / inhibition in vivo at 3 % / inhibition in vivo at 0.5 % / Control Rate Forepaws / Control Rate Hindpaws: 15 days; for inhibition in vivo at 300 mg/kg / inhibition in vivo at 200 mg/kg / inhibition in vivo at 250 mg/kg: 192 h, 8 days; for inhibition in vivo at 300 mg/kg: oral 300 mpk twice per day; for inhibition in vivo at 5 %: gel 5 wt%; for inhibition in vivo at 0.5 %: gel 0.5 wt%; for inhibition in vivo at 200 mg/kg: oral 200 mpk twice per day; for inhibition in vivo at 250 mg/kg: oral 250 mpk twice per day
Experimental: A mouse animal model was established. 6-week aged male Balb/c mice were administered with capecitabine by daily gavage. After a few days, mice's paws developed hand-foot syndrome symptoms (similar to the results of the rat model, such as, in FIG. 13). Similar to the human body, mice developed hand-foot syndrome in the forepaws and hind paws after oral administration of capecitabine. The causes of the two are the same, and the disorder is also very similar. Therefore, mice are very good animal models for simulating the hand-foot syndrome caused by capecitabine.
After Balb/c mice were fed and adapted for one week (about 20 g), the mice were divided into groups, with 10 mice in each group. Then, the mice were subject to gavage administration. Capecitabine was dissolved in normal saline with pH=8, and the gavage dose was not greater than 0.3 mL at each time. After gavage, the blank gel was applied to the forepaws and the hind paws (about 4*0.5 cm*0.5 cm) in group of blank gel, and gels containing different drugs were applied to the forepaws and the hind paws (about 4*0.5 cm*0.5 cm) in group of administration. After application, the mice were fixed in Elizabethan collar for 4 hours. After 4 hours, the mice were released, wiped with clean water to remove any residual drug at the application site, and allowed back to the cage. The gavage and application tests are repeated daily until the group of blank has developed obvious hand-foot syndrome. […] Additionally, the thymidine derivative and the combination of thymidine derivative and uridine derivative were orally administered for observing the relief of the hand-foot syndrome. In examples 41-48, thymidine derivative and/or uridine derivative were/was applied, and in examples 49-52, thymidine derivative and/or uridine derivative were/was administered orally.
Table 5 lists the combinations of animal experiments of capecitabine and thymidine derivative (or a combination of thymidine derivative and uridine derivative) and the corresponding experimental results (wherein the data in the column of control rate=the occurrence rate of hand-foot syndrome in group of blank—the occurrence rate of hand-foot syndrome in group of administration).
The effect of thymidine derivative or a combination of thymidine derivative and uridine derivative on a mouse model with chemotherapeutic drug (capecitabine)-induced hand-foot syndrome was tested according to the method in Examples 41-52. Wherein, the drugs were administered transdermally for Examples 119-120 and orally for Examples 121-123.
The test thymidine derivative or the combination of thymidine derivative and uridine derivative, as well as the final concentration of the test compounds were shown in Table 9. Table 9 lists the combinations of animal experiments of capecitabine and the thymidine derivative gel (or a compounded gel of thymidine derivative and uridine derivative) and the corresponding experimental results (wherein the data in the column of control rate=the occurrence rate of hand-foot syndrome in Group of blank—the occurrence rate of hand-foot syndrome in Group of administration).

[4] = gel 3 wt%, read-out: Control Rate Forepaws
[5] = gel 3 wt%, read-out: Control Rate Hindpaws
[6] = read-out: Control Rate Forepaws
[7] = read-out: Control Rate Hindpaws
[8] = gel 1 wt%, read-out: Control Rate Forepaws
[9] = gel 1 wt%, read-out: Control Rate Hindpaws
[10] = gel 5 wt%, read-out: Control Rate Forepaws
[11] = gel 5 wt%, read-out: Control Rate Hindpaws

SMILES: Cc1cn([C@H]2C[C@H](OC(=O)C(C)c3cccc(C(=O)c4ccccc4)c3)[C@@H](CO)O2)c(=O)[nH]c1=O (stereo partly shown) [T50]
- inhibition in vivo at 3 % [1, 4]: 71.4%
- inhibition in vivo at 3 % [1, 5]: 57.1%
- pain in rats (von Frey mechanical sensitivity) [2]: could significantly improve pain in rats

SMILES: CC(=O)OC[C@H]1O[C@@H](n2cc(C)c(=O)[nH]c2=O)C[C@@H]1O [T3]
- Control Rate ([1]; gel 1 wt% on hind paws): 27.50%
- inhibition in vivo at 2 % [3, 6]: 20%
- inhibition in vivo at 2 % [3, 7]: 30%

SMILES: CC(=O)O[C@H]1C[C@H](n2cc(C)c(=O)[nH]c2=O)O[C@@H]1CO [T2]
- Control Rate ([1]; gel 1 wt% on hind paws): 23.33%
- inhibition in vivo at 2 % [3, 6]: 40%
- inhibition in vivo at 2 % [3, 7]: 27.5%

SMILES: Cc1cn([C@H]2C[C@H](O)[C@@H](COC(=O)[C@H](C)c3ccc(CC(C)C)cc3)O2)c(=O)[nH]c1=O [T32]
- inhibition in vivo at 3 % [1, 4]: 37.5%
- inhibition in vivo at 3 % [1, 5]: 62.5%
- inhibition in vivo at 300 mg/kg [3, 6]: 71.4%
- inhibition in vivo at 300 mg/kg [3, 7]: 57.1%
- pain in rats (von Frey mechanical sensitivity) [2]: could significantly improve pain in rats

SMILES: COc1ccc2cc([C@H](C)C(=O)OC[C@H]3O[C@@H](n4cc(C)c(=O)[nH]c4=O)C[C@@H]3O)ccc2c1 [T25]
- inhibition in vivo at 0.1 % ([1]; gel 0.10 wt%, read-out: Control Rate Forepaws): 22.2%
- inhibition in vivo at 0.1 % ([1]; gel 0.10 wt%, read-out: Control Rate Hindpaws): 33.3%
- inhibition in vivo at 0.5 % ([1]; gel 0.50 wt%, read-out: Control Rate Forepaws): 22.2%
- inhibition in vivo at 0.5 % ([1]; gel 0.50 wt%, read-out: Control Rate Hindpaws): 44.4%
- inhibition in vivo at 1 % [1, 8]: 37.5%
- inhibition in vivo at 1 % [1, 9]: 50%
- inhibition in vivo at 3 % [1, 4]: 62.5%
- inhibition in vivo at 3 % [1, 5]: 75%
- inhibition in vivo at 5 % [1, 10]: 57.1%
- inhibition in vivo at 5 % [1, 11]: 71.4%
- inhibition in vivo at 5 % [3, 6]: 44.4%
- inhibition in vivo at 5 % [3, 7]: 66.7%
- inhibition in vivo at 1 % ([3]; transdermal 1% (wt %), read-out: Control Rate Forepaws): 22.2%
- inhibition in vivo at 1 % ([3]; transdermal 1% (wt %), read-out: Control Rate Hindpaws): 44.4%
- inhibition in vivo at 3 % ([3]; transdermal 3% (wt %), read-out: Control Rate Forepaws): 25%
- inhibition in vivo at 3 % ([3]; transdermal 3% (wt %), read-out: Control Rate Hindpaws): 37.5%
- pain in rats (von Frey mechanical sensitivity) [2]: could significantly improve pain in rats

SMILES: CC(=O)OCC1OC(n2cc(C)c(=O)[nH]c2=O)CC1OC(C)=O (stereo not shown) [T1]
- inhibition in vivo at 3 % [1, 4]: 57.1%
- inhibition in vivo at 3 % [1, 5]: 71.4%
- Control Rate ([1]; gel 0.5 wt% on hind paws): 20.00%
- Control Rate ([1]; gel 2 wt% on hind paws): 27.50%
- Control Rate ([1]; gel 5 wt% on hind paws): 56.67%
- inhibition in vivo at 300 mg/kg [3, 6]: 80%
- inhibition in vivo at 300 mg/kg [3, 7]: 90%
- inhibition in vivo at 0.5 % [3, 6]: 30%
- inhibition in vivo at 0.5 % [3, 7]: 20%
- inhibition in vivo at 2 % [3, 6]: 45.6%
- inhibition in vivo at 2 % [3, 7]: 34.4%
- inhibition in vivo at 5 % [3, 6]: 67.8%
- inhibition in vivo at 5 % [3, 7]: 78.9%
- pain in rats (von Frey mechanical sensitivity) [2]: did not significantly improve pain in rats

SMILES: Cc1cn([C@H]2C[C@H](O)[C@@H](COC(=O)C(C)c3cccc(Oc4ccccc4)c3)O2)c(=O)[nH]c1=O (stereo partly drawn) [T27, ((2R,3S, 5R)-3-hydroxyl-5-(5-methyl-2,4-dioxy-3,4-dihydropyrimidin-1(2H)-yl)tetrahydrofuran-2-yl)2-(3-phenoxyphenyl)propionate Methyl]
- Control Rate Forepaws ([1]; gel 0.10 wt%): 22.22%
- Control Rate Hindpaws ([1]; gel 0.10 wt%): 44.44%
- Control Rate Forepaws ([1]; gel 0.50 wt%): 33.33%
- Control Rate Hindpaws ([1]; gel 0.50 wt%): 33.33%
- Control Rate Forepaws ([1]; gel 1 wt%): 25%
- Control Rate Hindpaws ([1]; gel 1 wt%): 50%
- Control Rate Forepaws ([1]; gel 3 wt%): 57.14%
- Control Rate Hindpaws ([1]; gel 3 wt%): 71.43%
- Control Rate Forepaws ([1]; gel 5 wt%): 50%
- Control Rate Hindpaws ([1]; gel 5 wt%): 75.00%
- Control Rate Forepaws ([3]; transdermal 1% (wt %)): 50%
- Control Rate Hindpaws ([3]; transdermal 1% (wt %)): 62.50%
- Control Rate Forepaws ([3]; transdermal 3% (wt %)): 42.86%
- Control Rate Hindpaws ([3]; transdermal 3% (wt %)): 71.43%
- pain in rats (von Frey mechanical sensitivity) [2]: could significantly improve pain in rats

SMILES: Cc1ccc(C(=O)c2ccc(CC(=O)OC[C@H]3O[C@@H](n4cc(C)c(=O)[nH]c4=O)C[C@@H]3O)n2C)cc1 [T36]
- Control Rate Forepaws ([1]; gel 1 wt%): 28.57%
- Control Rate Hindpaws ([1]; gel 1 wt%): 42.86%
- Control Rate Forepaws ([1]; gel 3 wt%): 44.44%
- Control Rate Hindpaws ([1]; gel 3 wt%): 44.44%
- pain in rats (von Frey mechanical sensitivity) [2]: could significantly improve pain in rats

SMILES: CC1=C(CC(=O)OC[C@H]2O[C@@H](n3cc(C)c(=O)[nH]c3=O)C[C@@H]2O)c2cc(F)ccc2/C1=C\c1ccc([S+](C)[O-])cc1 (stereo partly shown) [T40]
- inhibition in vivo at 3 % [1, 4]: 44.4%
- inhibition in vivo at 3 % [1, 5]: 66.7%
- inhibition in vivo at 200 mg/kg [3, 6]: 75%
- inhibition in vivo at 200 mg/kg [3, 7]: 88%

SMILES: Cc1ccc(C(=O)c2ccc(CC(=O)O[C@H]3C[C@H](n4cc(C)c(=O)[nH]c4=O)O[C@@H]3CO)n2C)cc1 [T45]
- inhibition in vivo at 1 % [1, 8]: 25%
- inhibition in vivo at 1 % [1, 9]: 37.5%
- inhibition in vivo at 5 % [1, 10]: 55.6%
- inhibition in vivo at 5 % [1, 11]: 77.8%
- inhibition in vivo at 250 mg/kg [3, 6]: 57.1%
- inhibition in vivo at 250 mg/kg [3, 7]: 42.9%
- pain in rats (von Frey mechanical sensitivity) [2]: could significantly improve pain in rats
